What follows are compounds tested against T1, IDO (IFNγ-treated Hela cells) (Homo sapiens, UniProt P14902) (assay: IDO Kynurenine Assay with Hela Cells). Conditions: IFNγ 10 ng/ml, 20 hours incubation, kynurenine absorbance at 490 nm, read-out: Hela Cells LLE_IDO_ABS_DR (IC50).
T1 construct: endogenous in cells; host or cells: Hela cells treated with IFNγ (10 ng/ml)
Assay type: cell-based
Experimental: IDO Kynurenine Assay with Hela Cells
Hela cells were seeded at 30,000 cells per well in 40 ul RPMI/phenol red free media contains 10% FBS in a 384-well black wall clear bottom tissue culture plate (Matrix Technologies LLC). 270 nl of certain concentration of compound was then added to each well using ECHO liquid handling systems. 40 ul of IFNγ (R&D, 285-IF-100) at final concentration of 10 ng/ml was then added to column 2-24 with media to column 1 as control. The cells were incubated for 20 hours in 37° C. incubator with 5% CO2.
The compound treatments were stopped by adding trichloroacetic acid (Sigma-Aldrich) to a final concentration at 0.2%. The cell plate was further incubated at 50° C. for 30 minute. The equal volume supernatant (20 uL) and 0.2% (w/v) Ehrlich reagent (4-dimethylaminobenzaldehyde, Sigma-Aldrich) in glacial acetic acid were mixed in a new clear bottom 384-well plate. This plate was then incubated at room temperature for 30 minute. The absorbance at 490 nm was measured on Envision plate reader.
Compound IC50 values were calculated using the counts of no IFNγ control as one hundred percent inhibition, and counts of no compound but DMSO treatment as zero percent inhibition.

T1 sequence (P14902 whole entry): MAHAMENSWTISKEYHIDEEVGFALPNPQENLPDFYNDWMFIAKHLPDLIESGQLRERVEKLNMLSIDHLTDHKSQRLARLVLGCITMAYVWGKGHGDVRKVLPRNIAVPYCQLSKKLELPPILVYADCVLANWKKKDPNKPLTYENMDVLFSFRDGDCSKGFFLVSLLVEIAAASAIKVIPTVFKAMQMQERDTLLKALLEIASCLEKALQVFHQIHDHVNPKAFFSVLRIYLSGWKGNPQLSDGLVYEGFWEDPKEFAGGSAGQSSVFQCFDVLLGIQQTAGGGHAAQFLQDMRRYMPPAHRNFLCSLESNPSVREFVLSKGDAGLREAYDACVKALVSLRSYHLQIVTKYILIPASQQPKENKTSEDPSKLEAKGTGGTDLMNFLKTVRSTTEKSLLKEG

IC50	Structure (SMILES)
0.01 µM	Cc1ccc(CC(=O)Nc2cc(-c3cc(F)ccc3C(=O)O)ccc2N(CC(C)C)CC(C)C)cc1 [Example 1, 4′-(Diisobutylamino)-5-fluoro-3′-(2-p-tolylacetamido)biphenyl-2-carboxylic acid]
0.00502 µM	Cc1ccc(CC(=O)Nc2cc(-c3ccccc3-c3nnn[nH]3)ccc2N(CC(C)C)CC(C)C)cc1 [Example 2, N-(4-(Diisobutylamino)-2′-(1H-tetrazol-5-yl)biphenyl-3-yl)-2-p-tolylacetamide]
0.02 µM	CC(C)CN(Cc1ccccc1)c1ccc(-c2ccccc2-c2nnn[nH]2)cc1NC(=O)Cc1ccccc1C(F)(F)F [Example 3, N,N-(4-(Benzyl(isobutyl)amino)-2′-(1H-tetrazol-5-yl)biphenyl-3-yl)-2-(2-(trifluoromethyl)phenyl)acetamide]
0.01 µM	Cc1ccc(CC(=O)Nc2cc(-c3ccccc3C(=O)O)ccc2N(CC(C)C)CC(C)C)cc1 [Example 4, 4′-(diisobutylamino)-3′-(2-p-tolylacetamido) biphenyl-2-carboxylic acid]
0.04 µM	CC(C)CN(c1ccc(-c2ccccc2C(=O)O)cc1NC(=O)Cc1ccccc1F)C1CCCCC1 [Example 5, 4′-(cyclohexyl(isobutyl)amino)-3′-(2-(2-fluorophenyl)acetamido) biphenyl-2-carboxylic acid]
0.05 µM	CC(C)CN(c1ccc(-c2cc(F)ccc2C(=O)O)cc1NC(=O)Cc1ccccc1F)C1CCCCC1 [Example 6, 4′-(cyclohexyl(isobutyl)amino)-5-fluoro-3′-(2-(2-fluorophenyl)acetamido) biphenyl-2-carboxylic acid]
0.13 µM	CC(C)CN(c1ccc(-c2ccccc2-c2nnn[nH]2)cc1NC(=O)Cc1ccccc1C(F)(F)F)C1CCCCC1 [Example 7, N-(4-(cyclohexyl(isobutyl)amino)-2′-(1H-tetrazol-5-yl)biphenyl-3-yl)-2-(2-(trifluoromethyl)phenyl)acetamide]
0.94 µM	CC(C)CN(c1ccc(-c2ccccc2C(=O)O)cc1NC(=O)Cc1ccccc1C(F)(F)F)C1CCCCC1 [Example 8, 4′-(cyclohexyl(isobutyl)amino)-3′-(2-(2-(trifluoromethyl)phenyl)acetamido)biphenyl-2-carboxylic acid]
0.02 µM	CC(C)CN(c1ccc(-c2ccccc2-c2nnn[nH]2)cc1NC(=O)Cc1ccccc1F)C1CCCCC1 [Example 9, N-(4-(cyclohexyl(isobutyl)amino)-2′-(1H-tetrazol-5-yl)biphenyl-3-yl)-2-(2-fluorophenyl)acetamide]
0.00709 µM	CCCCN(c1ccc(-c2ccccc2-c2nnn[nH]2)cc1NC(=O)Cc1ccccc1F)C1CCCCC1 [Example 10, N-(4-(butyl(cyclohexyl)amino)-2′-(1H-tetrazol-5-yl)-[1,1′-biphenyl]-3-yl)-2-(2-fluorophenyl) acetamide]
0.00405 µM	COc1ccc(CC(=O)Nc2cc(-c3ccccc3-c3nnn[nH]3)ccc2N(CC(C)C)CC(C)C)cc1 [Example 11, N-(4-(diisobutylamino)-2′-(1H-tetrazol-5-yl)biphenyl-3-yl)-2-(4-methoxyphenyl)acetamide]
1.33 µM	CC(C)CN(CC(C)C)c1ccc(-c2ccccc2-c2nnn[nH]2)cc1NC(=O)Cc1ccc(C(C)C)cc1 [Example 13, N-(4-(diisobutylamino)-2′-(1H-tetrazol-5-yl)biphenyl-3-yl)-2-(4-isopropylphenyl) acetamide]
0.02 µM	CC(C)CN(CC(C)C)c1ccc(-c2ccccc2-c2nnn[nH]2)cc1NC(=O)Cc1ccc2c(c1)OCO2 [Example 14, 2-(benzo[d][1,3]dioxol-5-yl)-N-(4-(diisobutylamino)-2′-(1H-tetrazol-5-yl)biphenyl-3-yl)acetamide]
0.09 µM	CC(C)CN(CC(C)C)c1ccc(-c2ccccc2-c2nnn[nH]2)cc1NC(=O)Cc1ccc(OC(F)(F)F)cc1 [Example 15, N-(4-(diisobutylamino)-2′-(1H-tetrazol-5-yl)biphenyl-3-yl)-2-(4-(trifluoromethoxy)phenyl)acetamide]
0.0089 µM	CC(C)CN(CC(C)C)c1ccc(-c2ccccc2-c2nnn[nH]2)cc1NC(=O)Cc1cccc(F)c1 [Example 16, N-(4-(diisobutylamino)-2′-(1H-tetrazol-5-yl)biphenyl-3-yl)-2-(3-fluorophenyl)acetamide]
0.00442 µM	CC(C)CN(CC(C)C)c1ccc(-c2ccccc2-c2nnn[nH]2)cc1NC(=O)Cc1ccc(Cl)cc1 [Example 17, 2-(4-chlorophenyl)-N-(4-(diisobutylamino)-2′-(1H-tetrazol-5-yl)biphenyl-3-yl)acetamide]

IC50	Structure (SMILES)
0.04 µM	COc1ccc(CC(=O)Nc2cc(-c3ccccc3-c3nnn[nH]3)ccc2N(CC(C)C)CC(C)C)c(C(F)(F)F)c1 [Example 18, N-(4-(diisobutylamino)-2′-(1H-tetrazol-5-yl)biphenyl-3-yl)-2-(4-methoxy-2-(trifluoromethyl)phenyl)acetamide]
0.02 µM	CC(C)CN(CC(C)C)c1ccc(-c2ccccc2-c2nnn[nH]2)cc1NC(=O)Cc1ccccc1F [Example 19, N-(4-(diisobutylamino)-2′-(1H-tetrazol-5-yl)biphenyl-3-yl)-2-(2-fluorophenyl)acetamide]
0.00911 µM	Cc1ccc(CC(=O)Nc2cc(-c3ccccc3-c3nnn[nH]3)ccc2N(CC(C)C)CC(C)C)c(F)c1 [Example 20, N-(4-(diisobutylamino)-2′-(1H-tetrazol-5-yl)biphenyl-3-yl)-2-(2-fluoro-4-methylphenyl)acetamide]
0.52 µM	Cc1ccc(CC(=O)Nc2cc(-c3ccccc3-c3nnn[nH]3)ccc2N2C[C@H](C)C[C@H](C)C2)cc1 [Example 21, N-(4-(cis-3,5-Dimethylpiperidin-1-yl)-2′-(1H-tetrazol-5-yl)-[1,1′-biphenyl]-3-yl)-2-(p-tolyl)acetamide]
1.19 µM	C[C@@H]1C[C@H](C)CN(c2ccc(-c3ccccc3-c3nnn[nH]3)cc2NC(=O)Cc2ccc(F)cc2)C1 [Example 22, N-(4-(cis-3,5-Dimethylpiperidin-1-yl)-2′-(1H-tetrazol-5-yl)-[1,1′-biphenyl]-3-yl)-2-(4-fluorophenyl)acetamide]
0.28 µM	CC(C)CN(CC(C)C)c1ccc(-c2ccccc2-c2nnn[nH]2)cc1NC(=O)CC#N [Example 23]
0.08 µM	CC(C)CN(CC(C)C)c1ccc(-c2ccccc2-c2nnn[nH]2)cc1NC(=O)Cc1cccc2ccccc12 [Example 24]
0.02 µM	CC(C)CN(CC(C)C)c1ccc(-c2ccccc2-c2nnn[nH]2)cc1NC(=O)Cc1ccccc1Cl [Example 25]
0.05 µM	CC(C)CN(CC(C)C)c1ccc(-c2ccccc2-c2nnn[nH]2)cc1NC(=O)Cc1ccccc1C(F)(F)F [Example 26]
0.16 µM	CC(C)CN(CC(C)C)c1ccc(-c2ccccc2-c2nnn[nH]2)cc1NC(=O)Cc1cccc(C(F)(F)F)c1 [Example 27]
0.09 µM	CC(C)CN(CC(C)C)c1ccc(-c2ccccc2-c2nnn[nH]2)cc1NC(=O)Cc1ccc(O)cc1 [Example 28]
0.06 µM	CC(C)CN(CC(C)C)c1ccc(-c2ccccc2-c2nnn[nH]2)cc1NC(=O)Cc1ccc(C(F)(F)F)cc1 [Example 29]
0.3 µM	CC(C)CN(CC(C)C)c1ccc(-c2ccccc2-c2nnn[nH]2)cc1NC(=O)Cc1ccccn1 [Example 30]
0.07 µM	CC(C)CN(CC(C)C)c1ccc(-c2ccccc2-c2nnn[nH]2)cc1NC(=O)Cc1cccnc1 [Example 31]
4.01 µM	CC(C)CN(CC(C)C)c1ccc(-c2ccccc2-c2nnn[nH]2)cc1NC(=O)CS(=O)(=O)c1ccccc1 [Example 32]

— patent US9895330B2, “IDO inhibitors” (BRISTOL-MYERS SQUIBB COMPANY, priority 2013, dated 2018)
